Experimental data taken from ChEMBL document CHEMBL1629617, “IncA/C plasmid-mediated florfenicol resistance in the catfish pathogen Edwardsiella ictaluri” (2009).
Converted amounts (≈) assume the structure as drawn.

Assays:
Format in all cases: functional
Edwardsiella ictaluri [1] = assay: Antimicrobial activity against florfenicol-resistant Edwardsiella ictaluri M07-1 by microdilution assay
Escherichia coli [2] = assay: Antimicrobial activity against Escherichia coli ATCC […] by microdilution assay
Escherichia coli [3] = assay: Antimicrobial activity against Escherichia coli ATCC […] carrying Edwardsiella ictaluri pM07-1 by microdilution assay
Edwardsiella ictaluri [4] = assay: Fold resistance, ratio of MIC for florfenicol-resistance Edwardsiella ictaluri M07-1 to MIC for florfenicol-susceptible Edwardsiella ictaluri

CC1(C)S[C@@H]2[C@H](NC(=O)[C@H](N)c3ccc(O)cc3)C(=O)N2[C@H]1C(=O)O [AMOXICILLIN]
MIC (Edwardsiella ictaluri [1]): > 32 µg/mL
MIC (Escherichia coli [2]): 4 µg/mL (≈ 10.9 µM)
MIC (Escherichia coli [3]): > 32 µg/mL

CC1(C)S[C@@H]2[C@H](NC(=O)[C@H](N)c3ccccc3)C(=O)N2[C@H]1C(=O)O [AMPICILLIN]
MIC (Edwardsiella ictaluri [1]): > 32 µg/mL
MIC (Escherichia coli [2]): 4 µg/mL (≈ 11.4 µM)
MIC (Escherichia coli [3]): > 32 µg/mL

CO[C@@]1(NC(=O)Cc2cccs2)C(=O)N2C(C(=O)O)=C(COC(N)=O)CS[C@@H]21 [CEFOXITIN]
MIC (Edwardsiella ictaluri [1]): > 32 µg/mL
MIC (Escherichia coli [2]): 4 µg/mL (≈ 9.36 µM)
MIC (Escherichia coli [3]): > 32 µg/mL

CO/N=C(\C(=O)N[C@@H]1C(=O)N2C(C(=O)O)=C(CSC(=O)c3ccco3)CS[C@H]12)c1csc(N)n1 [CEFTIOFUR]
MIC (Edwardsiella ictaluri [1]): 8 µg/mL (≈ 15.3 µM)
MIC (Escherichia coli [2]): 0.5 µg/mL (≈ 0.955 µM)
MIC (Escherichia coli [3]): > 8 µg/mL

CO/N=C(\C(=O)N[C@@H]1C(=O)N2C(C(=O)O)=C(CSc3nc(=O)c(O)nn3C)CS[C@H]12)c1csc(N)n1 [CEFTRIAXONE]
MIC (Edwardsiella ictaluri [1]): 32 µg/mL (≈ 57.7 µM)
MIC (Escherichia coli [2]): < 0.25 µg/mL
MIC (Escherichia coli [3]): 32 µg/mL (≈ 57.7 µM)

O=C(N[C@H](CO)[C@H](O)c1ccc([N+](=O)[O-])cc1)C(Cl)Cl [CHLORAMPHENICOL]
MIC (Edwardsiella ictaluri [1]): > 32 µg/mL
MIC (Escherichia coli [2]): 4 µg/mL (≈ 12.4 µM)
MIC (Escherichia coli [3]): > 32 µg/mL

O=C(O)[C@H]1/C(=C/CO)O[C@@H]2CC(=O)N21 [CLAVULANIC ACID]
MIC (Edwardsiella ictaluri [1]): 16 µg/mL (≈ 80.3 µM)
MIC (Escherichia coli [2]): 2 µg/mL (≈ 10 µM)
MIC (Escherichia coli [3]): 16 µg/mL (≈ 80.3 µM)

CS(=O)(=O)c1ccc([C@@H](O)[C@@H](CF)NC(=O)C(Cl)Cl)cc1 [FLORFENICOL]
MIC (Edwardsiella ictaluri [1]): 128 µg/mL (≈ 357 µM)
MIC (Escherichia coli [2]): 4 µg/mL (≈ 11.2 µM)
Ratio (Edwardsiella ictaluri [4]): 500
MIC (Escherichia coli [3]): 256 µg/mL (≈ 715 µM)

CN[C@@H]1[C@H](O[C@H]2[C@H](O[C@H]3[C@H](O)[C@@H](O)[C@H](N=C(N)N)[C@@H](O)[C@@H]3N=C(N)N)O[C@@H](C)[C@]2(O)C=O)O[C@@H](CO)[C@H](O)[C@H]1O [STREPTOMYCIN]
MIC (Edwardsiella ictaluri [1]): > 64 µg/mL
MIC (Escherichia coli [2]): < 32 µg/mL
MIC (Escherichia coli [3]): > 64 µg/mL

Cc1cc(NS(=O)(=O)c2ccc(N)cc2)no1 [SULFAMETHOXAZOLE]
MIC (Edwardsiella ictaluri [1]): 19 µg/mL (≈ 75 µM)
MIC (Escherichia coli [2]): 2.4 µg/mL (≈ 9.48 µM)
MIC (Escherichia coli [3]): 19 µg/mL (≈ 75 µM)

CN(C)[C@@H]1C(O)=C(C(N)=O)C(=O)[C@@]2(O)C(O)=C3C(=O)c4c(O)cccc4[C@@](C)(O)[C@H]3C[C@@H]12 [TETRACYCLINE]
MIC (Edwardsiella ictaluri [1]): 32 µg/mL (≈ 72 µM)
MIC (Escherichia coli [2]): 4 µg/mL (≈ 9 µM)
MIC (Escherichia coli [3]): 32 µg/mL (≈ 72 µM)

COc1cc(Cc2cnc(N)nc2N)cc(OC)c1OC [TRIMETHOPRIM]
MIC (Edwardsiella ictaluri [1]): 1 µg/mL (≈ 3.44 µM)
MIC (Escherichia coli [2]): 0.1 µg/mL (≈ 0.344 µM)
MIC (Escherichia coli [3]): 1 µg/mL (≈ 3.44 µM)
